Structures can show the parent of a compound that is named as a salt.

One test concerns the target T1, human B1R receptor (Homo sapiens, UniProt P46663).
T1 construct: host or cells: CHO K1 cells (Chinese hamster ovary), stably transfected
T1 sequence (P46663 1-353): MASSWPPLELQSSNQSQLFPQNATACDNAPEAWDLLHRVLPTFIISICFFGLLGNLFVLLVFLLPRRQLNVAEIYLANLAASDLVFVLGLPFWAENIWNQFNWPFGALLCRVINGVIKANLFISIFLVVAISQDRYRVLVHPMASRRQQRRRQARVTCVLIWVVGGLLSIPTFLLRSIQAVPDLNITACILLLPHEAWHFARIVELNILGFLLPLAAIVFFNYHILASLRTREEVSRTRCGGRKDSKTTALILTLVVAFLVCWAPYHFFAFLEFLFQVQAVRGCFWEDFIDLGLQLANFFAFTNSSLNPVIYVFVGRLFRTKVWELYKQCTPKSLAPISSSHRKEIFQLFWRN
Put plainly: Functional study on the bradykinin receptor 1 (B1R), FLIPR Ca2+ assay, hB1R cells. It counts as cell-based. To be noted: CHO-K1, test substance 10 μM, agonist Lys-Des-Arg9-bradykinin 0.5 nM, % inhibition compared with the maximum achievable inhibition, read-out: B1R Antagonism, human [10 μM] % Inhibition. A digest of the protocol:
(§1)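 CHO K1 cells stably expressing human or rat B1R were loaded with Fluo-4 and read on a FLIPR (ex 488/em 540 nm, peak fluorescence). Test compounds at 10 μM were added first, then after 10 min agonist: Lys-Des-Arg9-bradykinin 0.5 nM for hB1R, Des-Arg9-bradykinin 100 nM for rB1R; % inhibition versus maximum inhibition.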

For another test, the target named is T2, B1R receptor of the rat (Rattus norvegicus, UniProt P97583).
T2 construct: host or cells: CHO K1 cells (Chinese hamster ovary), stably transfected
T2 sequence (P97583 1-337): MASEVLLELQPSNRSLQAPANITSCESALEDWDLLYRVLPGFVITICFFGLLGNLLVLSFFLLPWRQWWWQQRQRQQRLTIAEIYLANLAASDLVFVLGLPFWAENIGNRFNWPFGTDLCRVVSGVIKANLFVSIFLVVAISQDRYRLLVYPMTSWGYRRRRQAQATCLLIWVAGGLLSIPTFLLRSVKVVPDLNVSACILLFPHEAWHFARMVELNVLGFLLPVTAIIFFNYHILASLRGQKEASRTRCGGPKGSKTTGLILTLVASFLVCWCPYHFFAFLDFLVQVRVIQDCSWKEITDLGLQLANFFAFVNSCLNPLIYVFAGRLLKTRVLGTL
Put plainly: Functional study on the bradykinin receptor 1 (B1R), FLIPR Ca2+ assay, rB1R cells. It counts as cell-based. To be noted: CHO-K1, test substance 10 μM, agonist Des-Arg9-bradykinin 100 nM, % inhibition compared with the maximum achievable inhibition, read-out: B1R Antagonism, rat [10 μM] % Inhibition. In short, it runs like this:
as §1

Regarding `COc1cc(C)c(S(=O)(=O)N2CCCCC2COCC(=O)N2CCC(N3CCn4ccnc4C3)CC2)c(C)c1` (stereo not drawn) [Example 144, 1-(4-(5,6-dihydroimidazo[1,2-a]pyrazin-7(8H)-yl)piperidin-1-yl)-2-((1-(4-methoxy-2,6-dimethylphenylsulfonyl)piperidin-2-yl)methoxy)ethanone], the inhibition at 10 µM was found to be 101% on human B1R receptor and 98.2% on B1R receptor of the rat.
The like results for `COc1cc(C)c(S(=O)(=O)N2CCCCC2COCC(=O)N2CCC(N3CCn4ncnc4C3)CC2)c(C)c1` (stereo not drawn) [Example 145, 1-(4-(5,6-dihydro-[1,2,4]triazolo[1,5-a]pyrazin-7(8H)-yl)piperidin-1-yl)-2-((1-(4-methoxy-2,6-dimethylphenylsulfonyl)piperidin-2-yl)methoxy)ethanone] were, in that order, 99.4% and 98.6%.
On the same counts, the results for `COc1cc(C)c(S(=O)(=O)N2CCCCC2COCC(=O)N2CCC(C(=O)N3CCN(C)CC3)CC2)c(C)c1` (stereo not drawn) [Example 146, 2-((1-(4-methoxy-2,6-dimethylphenylsulfonyl)piperidin-2-yl)methoxy)-1-(4-(4-methylpiperazin-1-carbonyl)piperidin-1-yl)ethanone] are 97.3% and 99.6%.
On the same counts, the results for `COc1cc(C)c(S(=O)(=O)N2CCCCC2COCC(=O)N2CCN(c3ccncc3)CC2)c(C)c1` (stereo not drawn) [Example 147, 2-((1-(4-methoxy-2,6-dimethylphenylsulfonyl)piperidin-2-yl)methoxy)-1-(4-(pyridin-4-yl)piperazin-1-yl)ethanone] are 100% and 100%.
`Cc1cc(Br)cc(C)c1S(=O)(=O)N1CCCCC1COCC(=O)N1CCN(C2CCN(C)CC2)CC1` (stereo not drawn) [Example 148, 2-((1-(4-bromo-2,6-dimethylphenylsulfonyl)piperidin-2-yl)methoxy)-1-(4-(1-methylpiperidin-4-yl)piperazin-1-yl)ethanone]: the inhibition at 10 µM at human B1R receptor and on B1R receptor of the rat was 100% in each case.
For `Cc1cc(Br)cc(C)c1S(=O)(=O)N1CCCCC1COCC(=O)N1CCC(CCN2CCCC2)CC1` (stereo not drawn) [Example 149, 2-((1-(4-bromo-2,6-dimethylphenylsulfonyl)piperidin-2-yl)methoxy)-1-(4-(2-(pyrrolidin-1-yl)ethyl)piperidin-1-yl)ethanone], the inhibition at 10 µM at human B1R receptor was determined as 99.4%; on B1R receptor of the rat, 100%.
As to `Cc1cc(Br)cc(C)c1S(=O)(=O)N1CCCCC1COCC(=O)N1CCN(c2ccncc2)CC1` (stereo not drawn) [Example 150, 2-((1-(4-bromo-2,6-dimethylphenylsulfonyl)piperidin-2-yl)methoxy)-1-(4-(pyridin-4-yl)piperazin-1-yl)ethanone], the values for the inhibition at 10 µM at human B1R receptor and on B1R receptor of the rat were 98.3% and 99.1%, respectively.
The like results for `Cc1c(S(=O)(=O)N2CCCCC2COCC(=O)N2CCN(C3CCN(C)CC3)CC2)sc2ccc(Cl)cc12` (stereo not drawn) [Example 151, 2-((1-(5-chloro-3-methylbenzo[b]thiophen-2-ylsulfonyl)piperidin-2-yl)methoxy)-1-(4-(1-methylpiperidin-4-yl)piperazin-1-yl)ethanone dihydrochloride] were, in that order, 107% and 103%.
For `Cc1cccc(Cl)c1S(=O)(=O)N1CCC[C@@H]1COCC(=O)N1CCN(C2CCN(C)CC2)CC1` [Example 152, (R)-2-((1-(2-chloro-6-methylphenylsulfonyl)pyrrolidin-2-yl)methoxy)-1-(4-(1-methylpiperidin-4-yl)piperazin-1-yl)ethanone dihydrochloride], the inhibition at 10 µM at human B1R receptor was determined as 100%; on B1R receptor of the rat it was 90.8%.
On the same counts, the results for `CN1CCC(N2CCN(C(=O)COCC3CCCCN3S(=O)(=O)c3cc(C(F)(F)F)ccc3C(F)(F)F)CC2)CC1` (stereo not drawn) [Example 153, 2-((1-(2,5-bis(trifluoromethyl)phenylsulfonyl)piperidin-2-yl)methoxy)-1-(4-(1-methylpiperidin-4-yl)piperazin-1-yl)ethanone] are 81.6% and 40.6%.
On the same counts, the results for `CN1CCC(N2CCN(C(=O)COCC3CCCCN3S(=O)(=O)c3ccc(Cl)c4nonc34)CC2)CC1` (stereo not drawn) [Example 154, 2-((1-(7-chlorobenzo[c][1,2,5]oxadiazol-4-ylsulfonyl)piperidin-2-yl)methoxy)-1-(4-(1-methylpiperidin-4-yl)piperazin-1-yl)ethanone] are 83.2% and 84.4%.
The like results for `Cc1ccc(S(=O)(=O)N2CCCCC2COCC(=O)N2CCN(C3CCN(C)CC3)CC2)c2ccccc12` (stereo not drawn) [Example 155, 2-((1-(4-methylnaphthalen-1-ylsulfonyl)piperidin-2-yl)methoxy)-1-(4-(1-methylpiperidin-4-yl)piperazin-1-yl)ethanone dihydrochloride] were, in that order, 107% and 89.6%.
As for `CN1CCC(N2CCN(C(=O)COCC3CCCCN3S(=O)(=O)c3cc(Cl)c(Cl)cc3Cl)CC2)CC1` (stereo not drawn) [Example 156, 1-(4-(1-methylpiperidin-4-yl)piperazin-1-yl)-2-((1-(2,4,5-trichlorophenylsulfonyl)piperidin-2-yl)methoxy)ethanone dihydrochloride], the inhibition at 10 µM at human B1R receptor was 108%; on B1R receptor of the rat, 103%.
The like results for `Cc1ccc2ccccc2c1S(=O)(=O)N1CCCCC1COCC(=O)N1CCN(C2CCN(C)CC2)CC1` (stereo not drawn) [Example 157, 2-((1-(2-methylnaphthalen-1-ylsulfonyl)piperidin-2-yl)methoxy)-1-(4-(1-methylpiperidin-4-yl)piperazin-1-yl)ethanone dihydrochloride] were, in that order, 98.2% and 100%.
As for `CN1CCC(N2CCN(C(=O)COCC3CCCCN3S(=O)(=O)c3cccc4c(N(C)C)cccc34)CC2)CC1` (stereo not drawn) [Example 158, 2-((1-(5-(dimethylamino)naphthalen-1-ylsulfonyl)piperidin-2-yl)methoxy)-1-(4-(1-methylpiperidin-4-yl)piperazin-1-yl)ethanone dihydrochloride], the results for the inhibition at 10 µM at human B1R receptor and on B1R receptor of the rat were 98.5% and 99.3%, respectively.
Regarding `Cc1ccccc1S(=O)(=O)N1CCCCC1COCC(=O)N1CCN(C2CCN(C)CC2)CC1` (stereo not drawn) [Example 159, 1-(4-(1-methylpiperidin-4-yl)piperazin-1-yl)-2-((1-(o-tolylsulfonyl)piperidin-2-yl)methoxy)ethanone dihydrochloride], the results for the inhibition at 10 µM at human B1R receptor and at B1R receptor of the rat were 99.2% and 101%, respectively.
The like results for `CN1CCC(N2CCN(C(=O)COCC3CCCCN3S(=O)(=O)c3c(Cl)cc(Br)cc3Cl)CC2)CC1` (stereo not drawn) [Example 160, 2-((1-(4-bromo-2,6-dichlorophenylsulfonyl)piperidin-2-yl)methoxy)-1-(4-(1-methylpiperidin-4-yl)piperazin-1-yl)ethanone dihydrochloride] were, in that order, 99% and 99%.
As for `Cc1cccc(Cl)c1S(=O)(=O)N1CCC[C@H]1COCC(=O)N1CCC(CCN2CCCC2)CC1` [Example 161, (S)-2-((1-(2-chloro-6-methylphenylsulfonyl)pyrrolidin-2-yl)methoxy)-1-(4-(2-(pyrrolidin-1-yl)ethyl)piperidin-1-yl)ethanone hydrochloride], the inhibition at 10 µM turned out to be 98.5% at human B1R receptor and 99.2% on B1R receptor of the rat.
On the same counts, the results for `Cc1cccc(Cl)c1S(=O)(=O)N1CCC[C@H]1COCC(=O)N1CCN(C2CCN(C)CC2)CC1` [Example 162, (S)-2-((1-(2-chloro-6-methylphenylsulfonyl)pyrrolidin-2-yl)methoxy)-1-(4-(1-methylpiperidin-4-yl)piperazin-1-yl)ethanone dihydrochloride] are 99.5% and 99.5%.
The like results for `Cc1cccc(Cl)c1S(=O)(=O)N1CCC[C@H]1COCC(=O)N1CCN(CC2CCN(C)CC2)CC1` [Example 163, (S)-2-((1-(2-chloro-6-methylphenylsulfonyl)pyrrolidin-2-yl)methoxy)-1-(4-((1-methylpiperidin-4-yl)methyl)piperazin-1-yl)ethanone dihydrochloride] were, in that order, 95% and 101%.
On the same counts, the results for `COc1cc(C)c(S(=O)(=O)N2CCCCC2CCOCC(=O)N2CCN(C3CCN(C)CC3)CC2)c(C)c1` (stereo not drawn) [Example 164, 2-(2-(1-(4-methoxy-2,6-dimethylphenylsulfonyl)piperidin-2-yl)ethoxy)-1-(4-(1-methylpiperidin-4-yl)piperazin-1-yl)ethanone] are 99.6% and 101%.

The values are drawn from patent US8435978B2, “Substituted sulfonamide compounds” (Gruenenthal GmbH, priority 2006, dated 2013).
